From patent publication US20260071252A1, “REVERSIBLE NANOPARTICLE AGGREGATES AND METHODS FOR DETECTING PROTEASES” (The Regents of the University of California, priority 2022, published 2026)
Where no end group is shown, it is not given here.

Experiments:
[1] = Dissociation of Arg-Arg-AuNPs assemblies with HS-PEGs (UV-Vis percentage of dissociation, MANTA size)
Description: Dissociation of the AuNPs assemblies. […] HS-PEG6-OCH3 was chosen because its grafting on AuNPs ensure a high colloidal stability of these latter. Indeed, the grafting of thiolated PEGs has been widely reported in the literature via the formation of a strong Au—S bond conferring to the particles a high colloidal stability due to a combination of hydrophilicity and steric hindrance.^30-32 The Au—S bond being stronger than the arginine-citrate, arginine-gold or even citrate-gold interactions, […] was expected to be capable of progressively replacing the arginine/citrate layers at the gold surface, disrupting the electrostatic network, and eventually dispersing the AuNPs (Scheme 1). Briefly, aqueous suspensions Arg-Arg-AuNPs assemblies were exposed to increasing concentrations of HS-PEG6-OCH3, and the dissociation of the assemblies was characterized by TEM, MANTA, FTIR and UV-Vis spectroscopies (FIG. 2).
The presence of a PEG layer around the AuNPs explains the difference in the hydrodynamic diameter versus the initial AuNPs-citrate (48±32 nm vs 40±25 nm). Remarkably, the LSPR band of the dissociated AuNPs was identical to the AuNPs-citrate: The color of the sample returned to its initial bright red color. […] For the remainder of this study, the efficiency of the dissociation will be characterized by the percentage of dissociation (%) as measured by UV-Vis spectroscopy (comparison between the LSPR band after dissociation versus that from AuNPs-citrate). See the experimental section in the supporting information for more details. […] This finding is particularly interesting because the typical grafting density of HS-PEG6-OCH3 on dispersed AuNPs is reported to be between 3.5 and 4 HS-PEG6-OCH3/nm^2.^33 This implies that no excess of HS-PEGs was needed to dissociate the entire assembly-only enough to cover all the gold surface. It is worth noting that the kinetics of the dissociation was almost instantaneous (equilibrium reached within a minute) (FIG. 14). A video of the dissociation of the AuNPs assemblies is available online.
Dissociation. Stock solutions of the different HS-PEGs with concentrations ranging from 10 μM to 1 mM were prepared. Specific volumes of each solution were added to a 96-well plate in order to reach the desired final HS-PEGs concentration and then 100 μL of Arg-Arg-AuNPs were added. For complex matrices experiments, the Arg-Arg-AuNPs were first concentrated 10 times by centrifugation and then dispersed in complex media (sea water, pooled human saliva, plasma, urine, bile or HEK cell lysates) that represented thus 90% of the total volume except for bile, which was only 20%. Quickly after the addition of AuNPs, the dissociation of the assembly was monitored and the ratio of the absorbances at 520 nm and 700 nm was recorded over time. The percentage of dissociation is described as follows:
The optical absorption measurements were collected using a hybrid multi-mode microplate reader (Synergy™ H1 model, BioTek Instruments, Inc.) in a 96-well plate. The dissociation of assembly was characterized by measuring the ratio of the absorbance at 520 nm or 530 nm and 700 nm or 820 nm for 20 nm NPs or 40 nm NPs, respectively.
The multispectral advanced nanoparticle tracking analysis (MANTA) is a technique that builds images from the particles' light scattering via three lasers of different wavelengths (for example, blue, green, and red); the wavelength of scattering depends on nanoparticle size. Thus, small particles (less than, or <, 100 nm) appear blue while larger particles appear greener or redder. MANTA uses these images to count the nanoparticles and calculate their size based on Brownian motion. […] 3000™ (Horiba Scientific, USA). The temperature was set to 25° C. during the measurement. Automated noise analysis determines the optimal wavelength for representing each nanoparticle. Here, 8-bit composite videos were generated, and 10 videos were used per analysis (300 frames for seconds).

[2] = Dissociation efficiency of HS-PEG6-OCH3 for alternative assembly conditions or coating ligands; conditions: high concentration (>100 μM) of HS-PEG6-OCH3
Procedure: First, peptide-free conditions were used to promote the assembly of AuNPs-citrate and its dissociation with HS-PEG6-OCH3 was evaluated (FIG. 3A). Here, salts were added to AuNPs-citrate to induce aggregation via disruption of the electrostatic repulsion forces between the particles. […] Unlike the peptide Arg-Arg, these ions cannot sterically prevent the AuNPs from falling in an irreversible aggregated state.
AuNPs with different coating ligands were also evaluated and compared to citrate: bis(p-sulfonatophenyl)phenylphosphine (BSPP), mercaptobenzoic acid (MBA), or thiolated PEG-COOH (HS-PEG-COOH; Mw=634 g·mol^−1). […] This is because MBA and HS-PEG-COOH make covalent Au—S bonds with the gold surface that prevent subsequent grafting of HS-PEG6-OCH3.
Finally, an alternative control peptide was used for assembly (Cys-Arg-Lys).

[3] = Dissociation of AgNP aggregates by A18 fragments released by Mpro cleavage; conditions: AgNPs 20 nm, color from blue to yellow
[4] = target: SARS-CoV-2 main protease (Mpro) (Severe acute respiratory syndrome coronavirus 2, UniProt P0DTD1)
trypsin = test: Trypsin sensing with HS-PEG-peptide conjugates and Arg-Arg-AuNPs assemblies; type: biochemical
Procedure: Peptides containing the motif Arg-Arg-Lys (RRK) were thus conjugated to a thiolated PEG capped with a carboxyl group (HS-PEG12-COOH, Mw=634 Da) via EDC/NHS cross-linking reaction. Three peptides based on the motif RRK were investigated and the number of RRK repetitions varied from 1 to 3 to increase the mass and charge of the resulting HS-PEG-peptide conjugate (FIG. 6A).
From concentrations of 10 μM, HS-PEG12-COOH is capable to dissociate 100% of the assemblies (FIG. 21). However, the conjugation of the peptides to the HS-PEG12-COOH was expected to decrease its capacity to dissociate the assemblies as it increases its size and charge. In this context, the addition of the HS-PEG-peptide conjugates to AuNPs assemblies could not generate a colorimetric signal. However, in the presence of trypsin, the proteolytic cleavage could progressively remove the amino acids residues from the conjugate, thus reducing its size and charge that would restore the dissociation capacity. A colorimetric signal, proportional to the trypsin activity, could thus be observed (FIG. 6B).
Typically, 1 mL of HS-PEG12-COOH (HS—(CH2CH2O)12—CH2CH2COOH, 634 Da, 1 mM) dissolved in MES buffer (10 mM, pH=5.5) was activated via the addition of 100 μL of EDC (50 mM, MES) and 40 μL of NHS (500 mM, MES). The reaction was stirred at room temperature for one hour. After one hour, 1 mL of peptide (or NH2-molecule) (1 mM) dissolved in PBS (100 mM, pH=7.4) was added to the activated HS-PEG12-COOH. The reaction was stirred for 4 hours at room temperature and then stored at 4° C.
Typically, 5 μL of the PEG-peptide conjugate (0.44 mM) were added to 5 μL of PBS 1×. […] At the end of the incubation, 100 μL of aggregated AuNPs (Arg-Arg-AuNPs) were added, and a color change proportional to the trypsin concentration was observed. UV-Vis spectra were recorded 30 minutes later.

trypsin activity = test: Detection of trypsin activity in vivo with photoacoustic imaging, gold nanorods assemblies; conditions: mouse model
HS-PEG-RRK conjugate = system: T1, HS-PEG-RRK conjugate
T1 sequence: RRK

HS-PEG-RRKRRK conjugate = system: T2, HS-PEG-RRKRRK conjugate
T2 sequence: RRKRRK

[5] = system: T3, HS-PEG-RRKRRKRRK conjugate
T3 sequence: RRKRRKRRK

HS-PEG-TSG conjugate = system: T4, HS-PEG-TSG conjugate
T4 sequence: TSG

With `COCCOCCOCCOCCOCCOCCOCCS` [HS-PEG6-OCH3, 0-(2-mercaptoethyl)-O′-methyl-hexa(ethylene glycol)] as the molecule, how does the “size of the aggregates (MANTA)” value ([1]; 2 μM HS-PEG6-OCH3, 10 minutes, from 467±120 nm) read?
Its value is 167±112 nm.

And the “average size of the aggregates (MANTA)” value ([1]; 4 μM HS-PEG6-OCH3)?
The value was 136±85 nm.

What about the “average size of the aggregates (MANTA)” value ([1]; 8 μM HS-PEG6-OCH3) of the same molecule?
The value was 124±75 nm.

What about the “dissociation in complex matrices” value ([1]; 10 μM HS-PEG6-OCH3, plasma, urine, saliva, bile, HEK 293 cell lysates, sea water, matrix at least 90% of volume) of the same molecule?
The value was “At least 80%”.

What about the aggregates dissociated ([1]; 12 μM HS-PEG6-OCH3, LSPR band identical to AuNPs-citrate) of the same molecule?
Its aggregates dissociated is 100%.

And the “mean size (MANTA)” value ([1]; 12 μM HS-PEG6-OCH3 and above)?
The value was 48±25 nm.

And the “dissociation of the assembly by HS-PEG6-OCH3” value [2]?
The value was “could not dissociate the assemblies”.

Which results are given for CGGKKEEAVLQ [A18 fragment]?
dissociation of AgNP aggregates [3]: could dissociate AgNP aggregates; CDC [4]: 40 µM; size of AuNP aggregates after dissociation [4]: 26±0.30 nm; surface charge after dissociation [4]: −27±0.95 mV; time for dissociation [4]: ≤ 10 min

With “HS-PEG-RRKRRK: HS-PEG12-COOH conjugated to peptide RRKRRK via EDC/NHS; mixture of single and multiple conjugations (also: HS-PEG12 conjugated via EDC/NHS, site not given here, mixture of single and multiple conjugations)” as the molecule, how does the “dissociation capacity of the intact conjugate” value (trypsin; titrated to Arg-Arg-AuNPs, up to >100 μM, no trypsin) read?
Its value is “total quenching of the dissociation capacity”.

What about the “dissociation capacity after digestion with trypsin” value (trypsin; trypsin 10 μM, 37° C., 24 h) of the same molecule?
The value was “restored”.

And the “limit of detection of trypsin” value (trypsin; visual detection)?
The value was “picomolar”.

What about the photoacoustic signal (trypsin activity) of the same molecule?
The photoacoustic signal was “increase of photoacoustic signal”.

Which “dissociation capacity for Arg-Arg-AuNPs after trypsin digestion” value (shortened to “dissociation capacity for Arg-Arg-AuNPs”) (HS-PEG-RRK conjugate) does the source give for trypsin here?
Its value is “HS-PEG-RRK was also enhanced”.

And the “dissociation capacity for Arg-Arg-AuNPs” value (HS-PEG-RRKRRK conjugate)?
The value was “the dissociation capacity of HS-PEG-RRKRRK (SEQ ID NO:13) and HS-PEG-[..] (SEQ ID NO:14) was restored”.

And the “dissociation capacity for Arg-Arg-AuNPs” value [5]?
The value was “the dissociation capacity of HS-PEG-RRKRRK (SEQ ID NO:13) and HS-PEG-[..] (SEQ ID NO:14) was restored”.

And the “dissociation capacity for Arg-Arg-AuNPs” value (HS-PEG-TSG conjugate)?
Its value is “It is not impacted by the digestion by trypsin”.
